Laboratory results taken from patent US12157746B2, “Tetrahydro-1H-pyrazino[2,1-a]isoindolylquinoline compounds for the treatment of autoimmune disease” (F. HOFFMANN-LA ROCHE AG, priority 2018, dated 2024).
pIC50: −log10 of the molar value.

target: T1, human TLR9 (Homo sapiens, UniProt Q9NR96); test: HEK293-Blue-hTLR-9 cells assay; type: cell-based; details: HEK293-Blue-hTLR9 cells, ODN2006 stimulation, 20 hrs, SEAP reporter; read-out: HEK/hTLR9 IC50
T1 sequence (Q9NR96 26-1032): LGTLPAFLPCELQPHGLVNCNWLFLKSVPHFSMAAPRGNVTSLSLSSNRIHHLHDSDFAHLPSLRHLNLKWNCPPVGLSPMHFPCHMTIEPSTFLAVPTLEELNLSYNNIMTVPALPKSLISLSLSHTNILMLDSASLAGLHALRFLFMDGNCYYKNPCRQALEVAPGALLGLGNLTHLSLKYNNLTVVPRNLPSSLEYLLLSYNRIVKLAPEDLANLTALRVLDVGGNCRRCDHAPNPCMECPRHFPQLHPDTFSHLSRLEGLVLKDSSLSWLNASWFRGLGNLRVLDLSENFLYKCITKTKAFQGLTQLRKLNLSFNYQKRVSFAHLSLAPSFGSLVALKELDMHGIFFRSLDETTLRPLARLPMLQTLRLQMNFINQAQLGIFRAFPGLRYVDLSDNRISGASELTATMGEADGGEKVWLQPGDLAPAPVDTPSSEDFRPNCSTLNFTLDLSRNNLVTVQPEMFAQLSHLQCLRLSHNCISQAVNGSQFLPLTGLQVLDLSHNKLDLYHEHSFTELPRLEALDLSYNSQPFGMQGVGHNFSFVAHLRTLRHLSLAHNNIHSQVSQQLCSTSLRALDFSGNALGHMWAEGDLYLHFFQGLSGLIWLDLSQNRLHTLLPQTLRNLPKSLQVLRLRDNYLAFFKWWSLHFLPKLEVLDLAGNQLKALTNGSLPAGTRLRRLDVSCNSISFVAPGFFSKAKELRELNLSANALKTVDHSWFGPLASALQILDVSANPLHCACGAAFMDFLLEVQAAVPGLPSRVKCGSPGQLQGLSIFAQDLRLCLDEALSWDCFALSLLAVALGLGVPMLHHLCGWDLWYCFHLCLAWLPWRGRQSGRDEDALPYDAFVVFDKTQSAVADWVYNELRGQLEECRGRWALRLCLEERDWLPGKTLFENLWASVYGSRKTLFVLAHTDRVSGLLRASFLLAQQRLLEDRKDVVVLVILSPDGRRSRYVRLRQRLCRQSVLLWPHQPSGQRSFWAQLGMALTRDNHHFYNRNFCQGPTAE
Procedure, shortened: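 Antagonist mode in HEK293-Blue hTLR9 reporter cells (SEAP under NF-κB/AP-1 sites), stimulated with ODN2006 added from a 20 uM solution. Serially diluted compound (1% DMSO final) was incubated 20 hrs at 37° C. Supernatant SEAP was developed with QUANTI-Blue for 2 h at 37° C and read at 620˜655 nm.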

SMILES	pIC50
C[C@@H]1CN(c2ccc(C(F)(F)F)c3nccnc23)C[C@@H]2c3ccc(N[C@H]4CNC[C@H]4F)cc3CN12 [Example 77, (4R,10bS)—N-[(3S,4R)-4-fluoropyrrolidin-3-yl]-4-methyl-2-[8-(trifluoromethyl)quinoxalin-5-yl]-3,4,6,10b-tetrahydro-1H-pyrazino[2,1-a]isoindol-8-amine]	6.85
C[C@@H]1CN(c2ccc(C#N)c3ncccc23)C[C@@H]2c3ccc(NCC4(F)CNC4)cc3CN12 [Example 69, 5-[(4R,10bS)-8-[(3-fluoroazetidin-3-yl)methylamino]-4-methyl-3,4,6,10b-tetrahydro-1H-pyrazino[2,1-a]isoindol-2-yl]quinoline-8-carbonitrile]	6.77
C[C@H]1CN(c2ccc(C#N)c3ncccc23)C[C@H]2c3ccc(N4CCNCC4)cc3CN12 [Example 2, 5-[(4S,10bR)-4-methyl-8-piperazin-1-yl-3,4,6,10b-tetrahydro-1H-pyrazino[2,1-a]isoindol-2-yl]quinoline-8-carbonitrile]	6.90
[2H]c1ccc2c(N3C[C@@H](C)N4Cc5cc(N6CC7(CNCCO7)C6)ccc5[C@H]4C3)ccc(C#N)c2n1 [Example 90, 5-[(4R,10bS)-4-methyl-8-(5-oxa-2,8-diazaspiro[3.5]nonan-2-yl)-3,4,6,10b-tetrahydro-1H-pyrazino[2,1-a]isoindol-2-yl]-2-deuterio-quinoline-8-carbonitrile]	6.79
CO[C@@H]1CNC[C@@H]1Nc1ccc2c(c1)CN1[C@H](C)CN(c3ccc(C#N)c4ncccc34)C[C@H]21 [Example 60, 5-[(4R,10bS)-8-[[(3S,4R)-4-methoxypyrrolidin-3-yl]amino]-4-methyl-3,4,6,10b-tetrahydro-1H-pyrazino[2,1-a]isoindol-2-yl]quinoline-8-carbonitrile]	6.95
C[C@@H]1CN(c2ccc(C#N)c3ncccc23)C[C@@H]2c3ccc(NC[C@@H]4C[C@H](F)CN4)cc3CN12 [Example 70, 5-[(4R,10bS)-8-[[(2S,4S)-4-fluoropyrrolidin-2-yl]methylamino]-4-methyl-3,4,6,10b-tetrahydro-1H-pyrazino[2,1-a]isoindol-2-yl]quinoline-8-carbonitrile]	7.13
CO[C@H]1CNCC[C@H]1Nc1ccc2c(c1)CN1[C@H](C)CN(c3ccc(C#N)c4ncccc34)C[C@H]21 [Example 66, 5-[(4R,10bS)-8-[[(3S,4R)-3-methoxy-4-piperidyl]amino]-4-methyl-3,4,6,10b-tetrahydro-1H-pyrazino[2,1-a]isoindol-2-yl]quinoline-8-carbonitrile]	6.85
C[C@@H]1CN(c2ccc(C#N)c3ncccc23)C[C@@H]2c3cccc(NCCN4CC[C@H](O)C4)c3CN12 [Example 80, 5-[(4R,10bS)-7-[2-[(3S)-3-hydroxypyrrolidin-1-yl]ethylamino]-4-methyl-3,4,6,10b-tetrahydro-1H-pyrazino[2,1-a]isoindol-2-yl]quinoline-8-carbonitrile]	7.20
Cc1ccc(N2C[C@@H](C)N3Cc4cc(N[C@H]5CNC[C@H]5F)ccc4[C@H]3C2)c2cccnc12 [Example 75, (4R,10bS)—N-[(3S,4R)-4-fluoropyrrolidin-3-yl]-4-methyl-2-(8-methyl-5-quinolyl)-3,4,6,10b-tetrahydro-1H-pyrazino[2,1-a]isoindol-8-amine]	6.69
CO[C@H]1CNC[C@@H]1Nc1ccc2c(c1)CN1[C@H](C)CN(c3ccc(C#N)c4ncccc34)C[C@H]21 [Example 62, 5-[(4R,10bS)-8-[[(3S,4S)-4-methoxypyrrolidin-3-yl]amino]-4-methyl-3,4,6,10b-tetrahydro-1H-pyrazino[2,1-a]isoindol-2-yl]quinoline-8-carbonitrile]	7.07
